The term IC50 denotes the concentration needed to halve the response being measured. What is called EC50 is the concentration giving half of the maximal effect. Low readings indicate greater potency, high ones weaker potency.

Assay [1] addresses T1, HCV NS3/4A protease complex (Hepatitis C virus genotype 1a, UniProt P27958, C1454S/C1711G).
T1 construct: DNA encoding the recombinant HCV NS3/4A protease complex (amino acids 1027 to 1711) for these strains; inferred from pET21b vector and Ni-NTA purification) (C); made in house; host or cells: Escherichia coli BL21 (DE3), pET21b
Nature of the assay: FRET peptide assay to monitor HCV NS3/4A proteolytic activity. The following applies: NS3/4A strain not stated. The class given is biochemical. The text has this:
HCV NS3 protease complexes, derived from the BMS strain, H77 strain or J4L6S strain, were generated, as described below. These purified recombinant proteins were generated for use in a homogeneous assay (see below) to provide an indication of how effective compounds of the present disclosure would be in inhibiting HCV NS3 proteolytic activity.
The H77 and J4L6S strains were used for production of recombinant NS3/4A protease complexes. DNA encoding the recombinant HCV NS3/4A protease complex (amino acids 1027 to 1711) for these strains was manipulated as described by P. Gallinari et al. (see Gallinari P, Paolini C, Brennan D, Nardi C, Steinkuhler C, De Francesco R. Biochemistry. 38(17):5620-32, (1999)). Briefly, a three-lysine solubilizing tail was added at the 3′-end of the NS4A coding region. The cysteine in the P1 position of the NS4A-NS4B cleavage site (amino acid 1711) was changed to a glycine to avoid the proteolytic cleavage of the lysine tag. Furthermore, a cysteine to serine mutation was introduced by PCR at amino acid position 1454 to prevent the autolytic cleavage in the NS3 helicase domain. The variant DNA fragment was cloned in the pET21b bacterial expression vector (Novagen) and the NS3/4A complex was expressed in Escherichia coli strain BL21 (DE3) (Invitrogen) following the protocol described by P. Gallinari et al. (see Gallinari P, Brennan D, Nardi C, Brunetti M, Tomei L, Steinkuhler C, De Francesco R., J Virol. 72(8):6758-69 (1998)) with modifications. Briefly, the NS3/4A protease complex expression was induced with 0.5 millimolar (mM) Isopropyl β-D-1-thiogalactopyranoside (IPTG) for 22 hours (h) at 20° C. A typical fermentation (1 Liter (L)) yielded approximately 10 grams (g) of wet cell paste. The cells were resuspended in lysis buffer (10 mL/g) consisting of 25 mM N-(2-Hydroxyethyl)Piperazine-N′-(2-Ethane Sulfonic acid) (HEPES), pH 7.5, 20% glycerol, 500 mM Sodium Chloride (NaCl), 0.5% Triton X-100, 1 microgram/milliliter ([…]) lysozyme, 5 mM Magnesium Chloride (MgCl2), 1 μg/ml DnaseI, 5 mM […] (βME), Protease inhibitor-Ethylenediamine Tetraacetic acid (EDTA) free (Roche), homogenized and incubated for 20 minutes (min) at 4° C. The homogenate was sonicated and clarified by ultra-centrifugation at 235000 g for 1 hour (h) at 4° C. Imidazole was added to the supernatant to a final concentration of 15 mM and the pH adjusted to 8.0. The crude protein extract was loaded on a Nickel-Nitrilotriacetic acid (Ni-NTA) column pre-equilibrated with buffer B (25 mM HEPES, pH 8.0, 20% glycerol, 500 mM NaCl, 0.5% Triton X-100, 15 mM imidazole, 5 mM βME). The sample was loaded at a flow rate of 1 mL/min. The column was washed with 15 column volumes of buffer C (same as buffer B except with 0.2% Triton X-100). The protein was eluted with 5 column volumes of buffer D (same as buffer C except with 200 mM Imidazole).
NS3/4A protease complex-containing fractions were pooled and loaded on a desalting column Superdex-S200 pre-equilibrated with buffer D (25 mM HEPES, pH 7.5, 20% glycerol, 300 mM NaCl, 0.2% Triton X-100, 10 mM (βME). Sample was loaded at a flow rate of 1 mL/min. NS3/4A protease complex-containing fractions were pooled and concentrated to approximately 0.5 mg/ml. The purity of the NS3/4A protease complexes, derived from the BMS, H77 and J4L6S strains, were judged to be greater than 90% by SDS-PAGE and mass spectrometry analyses. The enzyme was stored at −80° C., thawed on ice and diluted prior to use in assay buffer.
The purpose of this in vitro assay was to measure the inhibition of HCV NS3 protease complexes, derived from the BMS strain, H77 strain or J4L6S strain, as described above, by compounds of the present disclosure. This assay provides an indication of how effective compounds of the present disclosure would be in inhibiting HCV NS3 proteolytic activity.
In order to monitor HCV NS3/4A protease activity, an NS3/4A peptide substrate was used. […]

For assay [2], the system named is HCV replicon in HUH-7 cells. Description: HCV replicon assay (FRET, confirmed by luciferase reporter). Format: cell-based, Hepatitis C virus (strain 1b). The conditions noted are these: Hepatitis C virus, 96 h, HUH-7 replicon cells, 4 days. The text has this:
An HCV replicon whole cell system was established as described by Lohmann V, Korner F, Koch J, Herian U, Theilmann L, Bartenschlager R., Science 285(5424):110-3 (1999). This system enabled us to evaluate the effects of our HCV Protease compounds on HCV RNA replication. Briefly, using the HCV strain 1b sequence described in the Lohmann paper (Assession number: AJ238799), an HCV cDNA was synthesized by Operon Technologies, Inc. (Alameda, Calif.), and the full-length replicon was then assembled in plasmid pGem9zf(+) (Promega, Madison, Wis.) using standard molecular biology techniques. The replicon consists of (i) the HCV 5′ UTR fused to the first 12 amino acids of the capsid protein, (ii) the neomycin phosphotransferase gene (neo), (iii) the IRES from encephalomyocarditis virus (EMCV), and (iv) HCV NS3 to NS5B genes and the HCV 3′ UTR. Plasmid DNAs were linearized with Seal and RNA transcripts were synthesized in vitro using the T7 MegaScript transcription kit (Ambion, Austin, Tex.) according to manufacturer's directions. In vitro transcripts of the cDNA were transfected into the human hepatoma cell line, HUH-7. […] Resulting cell lines were characterized for positive and negative strand RNA production and protein production over time.
The HCV replicon FRET assay was developed to monitor the inhibitory effects of compounds described in the disclosure on HCV viral replication. HUH-7 cells, constitutively expressing the HCV replicon, were grown in Dulbecco's Modified Eagle Media (DMEM) (Gibco-BRL) containing 10% Fetal calf serum (FCS) (Sigma) and 1 mg/ml G418 (Gibco-BRL). Cells were seeded the night before (1.5×10^4 cells/well) in 96-well tissue-culture sterile plates. Compound and no compound controls were prepared in DMEM containing 4% FCS, 1:100 Penicillin/Streptomysin (Gibco-BRL), 1:100 L-glutamine and 5% DMSO in the dilution plate (0.5% DMSO final concentration in the assay). Compound/DMSO mixes were added to the cells and incubated for 4 days at 37° C. After 4 days, cells were first assessed for cytotoxicity using alamar Blue (Trek Diagnostic Systems) for a CC50 reading. The toxicity of compound (CC50) was determined by adding 1/10th volume of alamar Blue to the media incubating the cells. After 4 h, the fluorescence signal from each well was read, with an excitation wavelength at 530 nm and an emission wavelength of 580 nm, using the Cytofluor Series 4000 (Perspective Biosystems). Plates were then rinsed thoroughly with Phosphate-Buffered Saline (PBS) (3 times 150 μl).
As a secondary assay, EC50 determinations from the replicon FRET assay were confirmed in a replicon luciferase reporter assay. Utilization of a replicon luciferase reporter assay was first described by Krieger et al (Krieger N, Lohmann V, and Bartenschlager R, J. Viral. 75(10):4614-4624 (2001)). The replicon construct described for our FRET assay was modified by inserting cDNA encoding a humanized form of the Renilla luciferase gene and a linker sequence fused directly to the 3′-end of the luciferase gene. This insert was introduced into the replicon construct using an Asc1 restriction site located in core, directly upstream of the neomycin marker gene. The adaptive mutation at position 1179 (serine to isoleucine) was also introduced (Blight K J, Kolykhalov, A A, Rice, C M, Science 290(5498):1972-1974). A stable cell line constitutively expressing this HCV replicon construct was generated as described above. The luciferase reporter assay was set up as described for the HCV replicon FRET assay with the following modifications. Following 4 days in a 37° C./5% CO2 incubator, cells were analyzed for Renilla Luciferase activity using the Promega Dual-Glo Luciferase Assay System. Media (100 μl) was removed from each well containing cells. To the remaining 50 μl of media, 50 μl of Dual-Glo Luciferase Reagent was added, and plates rocked for 10 min to 2 h at room temperature. […]
In general terms: Replicon systems follow genome replication, usually without infectious particles.

T1 sequence (P27958 1027-1711 C1454S/C1711G, one chain of several): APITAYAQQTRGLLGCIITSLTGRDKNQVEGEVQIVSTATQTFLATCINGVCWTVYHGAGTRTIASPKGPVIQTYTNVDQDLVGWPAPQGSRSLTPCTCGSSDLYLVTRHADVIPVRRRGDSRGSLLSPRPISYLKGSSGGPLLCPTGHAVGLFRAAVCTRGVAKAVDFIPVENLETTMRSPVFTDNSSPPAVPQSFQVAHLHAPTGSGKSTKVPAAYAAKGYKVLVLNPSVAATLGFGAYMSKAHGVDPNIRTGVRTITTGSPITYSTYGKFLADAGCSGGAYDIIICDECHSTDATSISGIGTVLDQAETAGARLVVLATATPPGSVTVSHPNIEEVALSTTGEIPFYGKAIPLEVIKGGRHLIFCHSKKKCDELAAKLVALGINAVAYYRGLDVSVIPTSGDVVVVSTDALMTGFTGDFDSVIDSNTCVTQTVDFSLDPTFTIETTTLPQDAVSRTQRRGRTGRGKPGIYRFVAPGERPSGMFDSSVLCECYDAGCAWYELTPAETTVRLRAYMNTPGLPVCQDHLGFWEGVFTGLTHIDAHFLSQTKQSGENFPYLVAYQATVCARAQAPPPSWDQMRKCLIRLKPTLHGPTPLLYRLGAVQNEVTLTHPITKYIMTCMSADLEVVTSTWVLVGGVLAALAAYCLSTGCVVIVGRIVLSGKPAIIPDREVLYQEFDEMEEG

For the compound `CO[C@@]12C[C@@H](C(=O)N[C@]3(C(=O)NS(=O)(=O)C4CC4)C[C@H]3C3CC3)N(C1)C(=O)[C@H](C(C)(C)C)NC(=O)OCCC(C)(C)CCCc1ccccc1-c1ccc2cc1` [Example 3], the 50% inhibitory concentration (IC50) in assay [1] (class symbols) lay in the range of 4 to 7 nM. In assay [2] (class symbols), this compound displayed an EC50 of 21 to 30 nM.
The matching figures for `C=C[C@@H]1C[C@]1(NC(=O)[C@@H]1C[C@]2(OC)CN1C(=O)[C@H](C(C)(C)C)NC(=O)OCCCCc1cc2ccc1-c1ccccc1)C(=O)NS(=O)(=O)C1CC1` [Example 8]: 8 to 11 nM and 21 to 30 nM.
As for `CO[C@@]12C[C@@H](C(=O)N[C@]3(C(=O)NS(=O)(=O)C4CC4)C[C@H]3C3CC3)N(C1)C(=O)[C@H](C(C)(C)C)NC(=O)OCCCCCCc1ccccc1-c1ccc2cc1` [Example 2], the concentration for half-maximal inhibition (IC50) in assay [1] (numeric values) turned out to be 1.5 nM. For the same compound, the concentration giving a half-maximal response (EC50) in assay [2] (numeric values) is 16 nM.
`C=C[C@@H]1C[C@]1(NC(=O)[C@@H]1C[C@]2(OC)CN1C(=O)[C@H](C(C)(C)C)NC(=O)OCCC(C)(C)CCCc1ccccc1-c1ccc2cc1)C(=O)NS(=O)(=O)C1CC1` [Example 4] returned an IC50 in assay [1] (class symbols) of 1 to 3 nM. This compound returned a half-maximal effective concentration (EC50) in assay [2] (class symbols) of 11 to 20 nM.

These data come from US8563505B2, “Hepatitis C virus inhibitors” (priority 2008, dated 2013).
